Results published in ChEMBL document CHEMBL1201862, “PubChem BioAssay data set” (2004).
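Where inhibition never reached the appropriate level, the endpoint shown equals the highest concentration tested. Otherwise, values were interpolated linearly from a five-concentration, 48-hour dose response in 96-well plates. GI50: concentration for 50% inhibition of growth.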 The source made the active and inactive calls. Rule as the data show it: active = GI50 up to about 1.1 µM and inactive = higher.

Experiments:
Experiment in all cases: growth of human tumour cells (NCI), 48 h
786-0 = test system: 786-0
A498 = test system: A498
A549 = test system: A549
ACHN = test system: ACHN
CAKI-1 = test system: CAKI-1
CCRF-CEM = test system: CCRF-CEM
COLO 205 = test system: COLO 205
DU-145 = test system: DU-145
EKVX = test system: EKVX
HCC 2998 = test system: HCC 2998
HCT-116 = test system: HCT-116
HCT-15 = test system: HCT-15
HL-60 = test system: HL-60
HOP-62 = test system: HOP-62
HOP-92 = test system: HOP-92
HT-29 = test system: HT-29
Hs-578T = test system: Hs-578T
IGROV-1 = test system: IGROV-1
K562 = test system: K562
KM12 = test system: KM12
LOX IMVI = test system: LOX IMVI
M14 = test system: M14
MCF7 = test system: MCF7
MDA-MB-231 = test system: MDA-MB-231
MDA-MB-435 = test system: MDA-MB-435
MOLT-4 = test system: MOLT-4
Malme-3M = test system: Malme-3M
NCI-H226 = test system: NCI-H226
NCI-H23 = test system: NCI-H23
NCI-H460 = test system: NCI-H460
NCI-H522 = test system: NCI-H522
NCI/ADR-RES = test system: NCI/ADR-RES
OVCAR-3 = test system: OVCAR-3
OVCAR-4 = test system: OVCAR-4
OVCAR-5 = test system: OVCAR-5
OVCAR-8 = test system: OVCAR-8
PC-3 = test system: PC-3
RPMI-8226 = test system: RPMI-8226
RXF 393 = test system: RXF 393
SF-268 = test system: SF-268
SF-295 = test system: SF-295
SF-539 = test system: SF-539
SK-MEL-28 = test system: SK-MEL-28
SK-MEL-2 = test system: SK-MEL-2
SK-MEL-5 = test system: SK-MEL-5
SN12C = test system: SN12C
SNB-19 = test system: SNB-19
SNB-75 = test system: SNB-75
SR = test system: SR
SW-620 = test system: SW-620
T47D = test system: T47D
TK-10 = test system: TK-10
U-251 = test system: U-251
UACC-257 = test system: UACC-257
UACC-62 = test system: UACC-62
UO-31 = test system: UO-31

For `CC(C)(C)C1=NN=C2c3ccccc3C(=O)C21` (stereo unspecified), the GI50 (786-0) was 99.5 µM (inactive), the GI50 (A498) was 21.3 µM (inactive) and the GI50 (A549) was 45.1 µM (inactive). The GI50 (ACHN) was 43.1 µM (inactive), the GI50 (CAKI-1) was 26.4 µM (inactive) and the GI50 (CCRF-CEM) was 63.2 µM (inactive). The GI50 (COLO 205) was 37.8 µM (inactive), the GI50 (DU-145) was 31.3 µM (inactive) and the GI50 (EKVX) was 27.4 µM (inactive). For the same compound, the GI50 (HCC 2998) was 4.6 µM (inactive), the GI50 (HCT-116) was > 100 µM (inactive) and the GI50 (HCT-15) was 29.4 µM. The GI50 (HL-60) was 34.3 µM (inactive), the GI50 (HOP-62) was > 100 µM (inactive) and the GI50 (HOP-92) was 15.5 µM (inactive). The GI50 (HT-29) was 28.2 µM (inactive), the GI50 (Hs-578T) was 20.7 µM (inactive) and the GI50 (IGROV-1) was 56.1 µM (inactive). For the same compound, the GI50 (K562) was 35.2 µM (inactive), the GI50 (KM12) was 18.9 µM (inactive) and the GI50 (LOX IMVI) was 41.1 µM (inactive). The GI50 (M14) was 76.6 µM (inactive), the GI50 (MCF7) was 51.1 µM (inactive) and the GI50 (MDA-MB-231) was 40.4 µM (inactive). The GI50 (MDA-MB-435) was 41.6 µM (inactive), the GI50 (MOLT-4) was 22.4 µM (inactive) and the GI50 (Malme-3M) was 36.2 µM (inactive). The GI50 (NCI-H226) was 41.7 µM (inactive), the GI50 (NCI-H23) was 49 µM (inactive) and the GI50 (NCI-H460) was 43.9 µM (inactive). The GI50 (NCI-H522) was 35.4 µM (inactive), the GI50 (NCI/ADR-RES) was 83.9 µM (inactive) and the GI50 (OVCAR-3) was 37.6 µM (inactive). The GI50 (OVCAR-4) was 38.8 µM (inactive), the GI50 (OVCAR-5) was 51.8 µM (inactive) and the GI50 (OVCAR-8) was 43.6 µM (inactive). For the same compound, the GI50 (PC-3) was 35.6 µM (inactive), the GI50 (RPMI-8226) was 32.1 µM (inactive) and the GI50 (RXF 393) was 81.3 µM (inactive). The GI50 (SF-268) was 58.9 µM (inactive), the GI50 (SF-295) was 39.1 µM (inactive) and the GI50 (SF-539) was 38.4 µM (inactive). For the same compound, the GI50 (SK-MEL-28) was 55.8 µM (inactive), the GI50 (SK-MEL-2) was 39.8 µM (inactive) and the GI50 (SK-MEL-5) was 23 µM (inactive). The GI50 (SN12C) was 42.6 µM (inactive), the GI50 (SNB-19) was 91.2 µM (inactive) and the GI50 (SNB-75) was 79.6 µM (inactive). For the same compound, the GI50 (SR) was 24.8 µM (inactive), the GI50 (SW-620) was 65.6 µM (inactive) and the GI50 (T47D) was > 100 µM (inactive). The GI50 (TK-10) was 53 µM (inactive), the GI50 (U-251) was 46.9 µM (inactive) and the GI50 (UACC-257) was 62.7 µM (inactive). For the same compound, the GI50 (UACC-62) was 27.4 µM (inactive) and the GI50 (UO-31) was 4.78 µM (inactive).
